Patent publication US9925166B2, “Methods of treating an overweight or obese subject” (Zafgen, Inc., priority 2008, dated 2018)
Values joined by “and” are separate entries in the source; they are usually repeats but may differ in a detail not shown here. Equal entries are not always repeated.

Tests used:
MetAP-2 = biological target: T1, MetAP-2 (Mus musculus, UniProt O08663); assay: ELISA assay of MetAP-2 binding (free MetAP-2) in adipose tissue lysates of dosed diet-induced obese mice; settings: fumagillin orally 3 mg/kg or 10 mg/kg; diet-induced obese mice; FIG. 1
T1 construct: from tissue; host or cells: adipose tissue of diet-induced obese mice
T1 sequence (O08663 whole entry): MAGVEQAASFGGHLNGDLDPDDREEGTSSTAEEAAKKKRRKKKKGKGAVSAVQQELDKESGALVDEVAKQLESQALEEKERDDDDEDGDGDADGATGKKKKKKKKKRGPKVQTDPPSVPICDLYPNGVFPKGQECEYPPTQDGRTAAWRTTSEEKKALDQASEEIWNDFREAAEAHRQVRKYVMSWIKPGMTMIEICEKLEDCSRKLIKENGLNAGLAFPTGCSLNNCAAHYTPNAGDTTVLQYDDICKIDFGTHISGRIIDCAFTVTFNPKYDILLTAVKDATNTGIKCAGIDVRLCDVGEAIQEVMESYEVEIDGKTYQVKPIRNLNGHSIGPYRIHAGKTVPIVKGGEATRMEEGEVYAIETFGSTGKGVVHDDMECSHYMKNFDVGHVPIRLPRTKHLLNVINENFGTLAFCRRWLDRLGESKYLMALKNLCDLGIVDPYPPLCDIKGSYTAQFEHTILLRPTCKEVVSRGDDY
Procedure: Diet-induced obese mice were orally (p.o.) administered fumagillin (3 mg/kg or 10 mg/kg; Medivet), subcutaneously administered (s.c.) TNP-470 (1 mg/kg, 3 mg/kg, 10 mg/kg, or 30 mg/kg; synthesized by standard semi-synthetic processes as described in European Patent EP 0 357 061), or administered a solution of 10% dimethyl sulfoxide (DMSO; control; Sigma-Aldrich). Mice were sacrificed and adipose tissue samples were obtained.
An ELISA assay of MetAP-2 binding was conducted with tissue lysates prepared from the adipose tissue samples. The MetAP-2 ELISA is a quantitative assay to determine the amount of free MetAP-2 in tissue or cell lysates, i.e., MetAP-2 not covalently bound to fumagillin or TNP-470. The assay takes advantage of the fact that biotinylated fumagillin can bind to the catalytic site of the MetAP-2 enzyme only if this site has not already been derivatized by fumagillin or TNP-470. The biotinylated MetAP-2-inhibitor complex was captured on a streptavidin-coated plate and detected with a rabbit anti-MetAP-2 antibody (Zymed Laboratories Inc.). Horseradish peroxidase-conjugated anti-rabbit immunoglobulin G (IgG) was added to detect the MetAP-2 antibody immobilized to the streptavidin-coated plate with its covalently bound biotinylated fumagillin. Tetramethylbenzidine (TMB) substrate was added and the reaction was stopped by addition of sulfuric acid. Analysis was performed by determining absorption at 450 nm. Human recombinant MetAP-2 (R&D Systems), pre-bound to biotinylated fumagillin, was used to generate a standard curve.

diet-induced obese mice [1] = assay: Percent fat change and lean mass change by NMR in diet-induced obese mice, 28 days (Example 6); type: in vivo, C57BL6J mice
Procedure: Mice were first divided into three groups, a control group, a diet-induced obese group, and a lean group. For the diet-induced obese group, C57BL6J mice maintained prior to and during the study on a diet containing 40% fat on a kilocalorie basis were further divided into two groups. For the lean group, C57BL6J mice were maintained on a diet containing 4% by weight fat prior to and during the study. Each of the groups was subsequently divided as described below.
The lean group was administered 1% DMSO vehicle for 28 days. Percent fat change and percent lean mass change from baseline were determined by NMR after 28 days.

leptin = assay: Plasma marker leptin in diet-induced obese mice (Example 10); type: in vivo, C57BL/6 mice; settings: 1 mg/kg/day oral gavage, end of study vs prior, FIG. 15
Procedure: Mice were divided into four groups, a diet-induced obese group administered fumagillin at 1 mg/kg/day (oral gavage as a solution in 0.25% DMSO), a Pair-fed group, a caloric restriction group, and a diet-induced obese group. For the diet-induced obese groups, C57BL/6 mice were maintained prior to and during the study on a diet containing 42% fat on a kilocalorie basis. Plasma markers were measured prior to and at the end of the study.

diet-induced obese mice [2] = assay: Weight loss study in diet-induced obese mice, oral gavage 28 days (Example 2); type: in vivo, C57BL/6NTac mice; settings: for weight loss as a percentage of pre-study weight: 28 days, end of study
Procedure: The mice in this study were not genetically obese, but prior to and during the study, obesity was induced by a high-fat diet. Twelve week-old C57BL/6NTac mice, maintained on a 60% fat diet prior to and during the study, were separated into six groups, eight animals per group.
Fumagillin was administered to four of the diet-induced obese mice groups by oral gavage as a solution in 10% DMSO, at doses of 1 mg/kg/day, 3 mg/kg/day, 10 mg/kg/day and 30 mg/kg/day respectively, for 28 days. A fifth group received 10% DMSO vehicle-only (control) by oral gavage, and the sixth group received neither vehicle nor fumagillin (naïve). Body weight was measured on day 0 (pre-study) and subsequently on day 3, day 8, day 15, day 22, and day 29 of the study. Daily food consumption was also recorded.

[3] = Plasma concentration after oral administration in a non-enterically coated capsule (Example 7); type: in vivo, Sprague-Dawley rats; settings: 30 mg/kg capsule oral
Procedure: A study was undertaken to investigate absorption of fumagillin orally administered in a capsule. Five male Sprague-Dawley rats were fasted, and were then each orally administered a non-enterically coated capsule containing 30 mg/kg of fumagillin. […] (graphically illustrated as 0.17), 20 min. (graphically illustrated as 0.33), 30 min. […]

## CO[C@@H]1[C@H](OC(=O)/C=C/C=C/C=C/C=C/C(=O)O)CC[C@]2(CO2)[C@H]1[C@@]1(C)O[C@@H]1CC=C(C)C [fumagillin]
MetAP-2
  binding to MetAP-2 in adipose tissue: binds MetAP-2 in adipose tissue
diet-induced obese mice [1]; 0.3 mg/kg/day oral gavage
  weight loss: lost significant amounts of weight
diet-induced obese mice [1]; 1.0 mg/kg/day oral gavage
  weight loss: losing a greater amount of weight
diet-induced obese mice [1]; 0.3 or 1.0 mg/kg/day oral gavage
  loss of lean body mass (NMR): without resulting in substantial loss of lean body mass
leptin
  leptin levels: reduced
diet-induced obese mice [2]; 1 mg/kg and 3 mg/kg oral
  neutrophil counts compared to vehicle-only mice: decreased
diet-induced obese mice [2]; 1 mg/kg/day oral gavage
  weight loss as a percentage of pre-study weight: 15%
diet-induced obese mice [2]; 3 mg/kg/day oral gavage
  weight loss as a percentage of pre-study weight: 18%
diet-induced obese mice [2]; 10 mg/kg and 30 mg/kg oral
  neutrophil counts compared to vehicle-only mice: increased
diet-induced obese mice [2]; 10 mg/kg/day oral gavage
  weight loss as a percentage of pre-study weight: 21%
diet-induced obese mice [2]; 30 mg/kg/day oral gavage
  weight loss as a percentage of pre-study weight: 33%
diet-induced obese mice [2]; 30 mg/kg/day oral, 30 day period
  food consumption among dose groups: consuming the least amount of food
diet-induced obese mice [2]; 1-30 mg/kg/day oral, 30 day period
  food consumption vs vehicle-only and naive mice: consumed less food
diet-induced obese mice [2]; fumagillin dose groups, oral
  leukocytes, particularly lymphocytes (hematology): decrease
  platelets: No decrease
diet-induced obese mice [2]; fumagillin treatment, oral
  cholesterol levels: reductions
  serum glucose levels: reductions
diet-induced obese mice [2]; oral gavage, weight loss, not identified, concluded
  non-effective dose: below 1 mg/kg/day
[3]; male rats 1-5, time point 0 hr
  ZGN-201 Conc. in Rat Plasma, individual animals: BQL (BQL: 1 ng/mL)
[3]; male rats 1-5, time point 0.17 hr
  ZGN-201 Conc. in Rat Plasma, individual animals: BQL (BQL: 1 ng/mL)
[3]; male rats 1-5, time point 0.33 hr, listed as ZGN-201
  ZGN-201 Conc. in Rat Plasma, individual animals: 5.3 ng/mL and 1.9 ng/mL and 1.6 ng/mL and 1.8 ng/mL and 5.2 ng/mL
[3]; male rats 1-5, time point 0.5 hr, listed as ZGN-201
  ZGN-201 Conc. in Rat Plasma, individual animals: 14.3 ng/mL and 4.5 ng/mL and 3.6 ng/mL and 3 ng/mL and 11.4 ng/mL
[3]; male rats 1-5, time point 1 hr, listed as ZGN-201
  ZGN-201 Conc. in Rat Plasma, individual animals: 36.1 ng/mL and 14.5 ng/mL and 8.9 ng/mL and 3.6 ng/mL and 117.9 ng/mL
[3]; male rats 1-5, time point 2 hr, listed as ZGN-201
  ZGN-201 Conc. in Rat Plasma, individual animals: 81.2 ng/mL and 98.2 ng/mL and 125.4 ng/mL and 9.5 ng/mL and 156.4 ng/mL
[3]; male rats 1-5, time point 8 hr, listed as ZGN-201
  ZGN-201 Conc. in Rat Plasma, individual animals: 36.6 ng/mL and 47.1 ng/mL and 141.3 ng/mL and 31.6 ng/mL and 116.8 ng/mL
[3]; rats
  absorption through the stomach: poorly absorbed through the stomach
  time after administration at which absorption is first observed: 20 min
  time of peak absorption after administration: approximately 2 hrs
[3]; rats, time point 2
  maximal concentration absorbed into the blood: approximately 100 ng/ml
[3]; male, Sprague-Dawley, rat, plasma, oral, 30 mg/kg, male rats, time point 0.33 hr, read-out: ZGN-201 Conc. in Rat Plasma, Mean
  concentration at 0.33 hr: 3 ng/mL
[3]; male, Sprague-Dawley, rat, plasma, oral, 30 mg/kg, male rats, time point 0.5 hr, read-out: ZGN-201 Conc. in Rat Plasma, Mean
  concentration at 0.5 hr: 7 ng/mL
[3]; male, Sprague-Dawley, rat, plasma, oral, 30 mg/kg, male rats, time point 1 hr, read-out: ZGN-201 Conc. in Rat Plasma, Mean
  concentration at 1 hr: 36 ng/mL
[3]; male, Sprague-Dawley, rat, plasma, oral, 30 mg/kg, male rats, time point 2 hr, read-out: ZGN-201 Conc. in Rat Plasma, Mean
  concentration at 2 hr: 94 ng/mL
[3]; male, Sprague-Dawley, rat, plasma, oral, 30 mg/kg, male rats, time point 8 hr, read-out: ZGN-201 Conc. in Rat Plasma, Mean
  concentration at 8 hr: 75 ng/mL
